{"source": "patent US10392368B2", "about": "“Pyrazolo and triazolo bicyclic compounds as JAK kinase inhibitors” (THERAVANCE BIOPHARMA R&D IP, LLC, priority 2017, dated 2019)", "key": {"JAK1": {"target": "T1, JAK1 (Homo sapiens, UniProt P23458)", "T1 construct": "GST; purchased Life Technologies", "T1 sequence (P23458 whole entry)": "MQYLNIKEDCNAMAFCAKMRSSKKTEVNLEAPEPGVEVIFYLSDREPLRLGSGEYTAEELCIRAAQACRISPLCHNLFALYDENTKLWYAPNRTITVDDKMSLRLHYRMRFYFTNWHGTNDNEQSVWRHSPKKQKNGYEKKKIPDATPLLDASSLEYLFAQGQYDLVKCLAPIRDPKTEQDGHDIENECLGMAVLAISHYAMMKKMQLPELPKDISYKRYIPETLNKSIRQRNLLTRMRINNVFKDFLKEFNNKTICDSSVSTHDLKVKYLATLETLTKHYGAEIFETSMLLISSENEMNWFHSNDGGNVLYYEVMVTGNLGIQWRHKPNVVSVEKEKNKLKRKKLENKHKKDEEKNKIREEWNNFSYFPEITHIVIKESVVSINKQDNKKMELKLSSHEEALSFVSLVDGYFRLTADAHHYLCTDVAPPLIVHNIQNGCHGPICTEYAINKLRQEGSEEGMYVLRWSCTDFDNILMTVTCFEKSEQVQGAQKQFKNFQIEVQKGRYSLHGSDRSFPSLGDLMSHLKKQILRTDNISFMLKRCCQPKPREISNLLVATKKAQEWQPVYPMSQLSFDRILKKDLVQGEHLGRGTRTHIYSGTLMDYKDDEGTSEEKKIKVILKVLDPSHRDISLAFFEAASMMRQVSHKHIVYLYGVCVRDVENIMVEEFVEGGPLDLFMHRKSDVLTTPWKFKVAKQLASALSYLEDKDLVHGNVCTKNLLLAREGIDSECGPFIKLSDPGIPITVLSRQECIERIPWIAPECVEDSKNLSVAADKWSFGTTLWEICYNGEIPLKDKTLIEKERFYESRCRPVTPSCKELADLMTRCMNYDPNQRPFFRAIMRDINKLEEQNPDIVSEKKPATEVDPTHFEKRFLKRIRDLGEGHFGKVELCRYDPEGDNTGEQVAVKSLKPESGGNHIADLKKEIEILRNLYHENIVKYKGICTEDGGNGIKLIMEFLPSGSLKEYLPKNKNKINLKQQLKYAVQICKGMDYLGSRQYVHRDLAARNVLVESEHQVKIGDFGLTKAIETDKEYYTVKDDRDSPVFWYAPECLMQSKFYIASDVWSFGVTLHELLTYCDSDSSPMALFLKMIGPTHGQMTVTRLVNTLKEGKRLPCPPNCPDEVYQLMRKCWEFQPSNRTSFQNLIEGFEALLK", "assay": "Biochemical JAK1 kinase assay (LanthaScreen)", "settings": "for Ki: read-out: JAK 1 (pKi) (converted)", "in_short": "(§1)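 Values are pKi, calculated by Cheng-Prusoff from IC50 obtained by robust 4-parameter fitting of percent inhibition. The kinase reaction used GFP-STAT1 peptide in HEPES pH 7.5 buffer with MgCl2, EGTA and Brij-35, ATP-initiated after compound pre-incubation, 1 h at ambient temperature.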"}, "JAK2": {"target": "T2, JAK2 (Homo sapiens, UniProt O60674)", "T2 construct": "GST; purchased Life Technologies", "T2 sequence (O60674 whole entry)": "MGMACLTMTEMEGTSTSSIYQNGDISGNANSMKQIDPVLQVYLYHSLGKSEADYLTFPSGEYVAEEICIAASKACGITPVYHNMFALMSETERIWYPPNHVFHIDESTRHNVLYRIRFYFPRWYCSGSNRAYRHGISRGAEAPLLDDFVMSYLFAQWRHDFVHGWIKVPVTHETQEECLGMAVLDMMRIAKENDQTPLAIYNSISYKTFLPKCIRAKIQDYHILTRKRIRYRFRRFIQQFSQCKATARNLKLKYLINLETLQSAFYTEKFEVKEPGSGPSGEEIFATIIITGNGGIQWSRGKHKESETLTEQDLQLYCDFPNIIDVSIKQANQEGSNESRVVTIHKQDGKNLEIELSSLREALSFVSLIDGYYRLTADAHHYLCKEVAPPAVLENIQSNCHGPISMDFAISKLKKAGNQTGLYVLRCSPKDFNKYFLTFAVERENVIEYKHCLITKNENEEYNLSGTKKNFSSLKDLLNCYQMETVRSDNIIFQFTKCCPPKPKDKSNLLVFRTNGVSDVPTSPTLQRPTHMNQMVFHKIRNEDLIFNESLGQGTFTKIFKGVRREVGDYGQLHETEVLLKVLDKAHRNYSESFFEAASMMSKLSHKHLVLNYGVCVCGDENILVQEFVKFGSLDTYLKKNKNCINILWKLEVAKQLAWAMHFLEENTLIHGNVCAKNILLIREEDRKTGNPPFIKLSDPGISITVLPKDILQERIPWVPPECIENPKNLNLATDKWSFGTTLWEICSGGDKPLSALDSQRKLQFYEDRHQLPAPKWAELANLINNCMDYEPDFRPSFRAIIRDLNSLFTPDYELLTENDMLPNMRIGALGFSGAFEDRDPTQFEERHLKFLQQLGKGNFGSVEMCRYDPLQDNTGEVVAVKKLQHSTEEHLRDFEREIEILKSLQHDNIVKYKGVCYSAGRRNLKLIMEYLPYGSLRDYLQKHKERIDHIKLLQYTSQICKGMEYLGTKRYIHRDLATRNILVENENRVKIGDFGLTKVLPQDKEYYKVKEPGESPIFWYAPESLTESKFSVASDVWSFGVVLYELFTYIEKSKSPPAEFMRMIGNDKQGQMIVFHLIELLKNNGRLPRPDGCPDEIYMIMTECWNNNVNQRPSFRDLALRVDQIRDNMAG", "assay": "Biochemical JAK2 kinase assay (LanthaScreen)", "settings": "for Ki: read-out: JAK 2 (pKi) (converted)", "in_short": "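pKi values derive from pIC50 via Cheng-Prusoff, with IC50 from a 4-parameter fit of percent-inhibition TR-FRET data using Tb-anti-pSTAT1 (pTyr701) detection. Compound, GST-JAK2 and GFP-STAT1 substrate were pre-incubated 1 h, then ATP started a 1 h ambient reaction (HEPES pH 7.5, 10 mM MgCl2, 1% DMSO).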"}, "Tyk2": {"target": "T3, Tyk2 (Homo sapiens, UniProt P29597)", "T3 construct": "GST; purchased Life Technologies", "T3 sequence (P29597 whole entry)": "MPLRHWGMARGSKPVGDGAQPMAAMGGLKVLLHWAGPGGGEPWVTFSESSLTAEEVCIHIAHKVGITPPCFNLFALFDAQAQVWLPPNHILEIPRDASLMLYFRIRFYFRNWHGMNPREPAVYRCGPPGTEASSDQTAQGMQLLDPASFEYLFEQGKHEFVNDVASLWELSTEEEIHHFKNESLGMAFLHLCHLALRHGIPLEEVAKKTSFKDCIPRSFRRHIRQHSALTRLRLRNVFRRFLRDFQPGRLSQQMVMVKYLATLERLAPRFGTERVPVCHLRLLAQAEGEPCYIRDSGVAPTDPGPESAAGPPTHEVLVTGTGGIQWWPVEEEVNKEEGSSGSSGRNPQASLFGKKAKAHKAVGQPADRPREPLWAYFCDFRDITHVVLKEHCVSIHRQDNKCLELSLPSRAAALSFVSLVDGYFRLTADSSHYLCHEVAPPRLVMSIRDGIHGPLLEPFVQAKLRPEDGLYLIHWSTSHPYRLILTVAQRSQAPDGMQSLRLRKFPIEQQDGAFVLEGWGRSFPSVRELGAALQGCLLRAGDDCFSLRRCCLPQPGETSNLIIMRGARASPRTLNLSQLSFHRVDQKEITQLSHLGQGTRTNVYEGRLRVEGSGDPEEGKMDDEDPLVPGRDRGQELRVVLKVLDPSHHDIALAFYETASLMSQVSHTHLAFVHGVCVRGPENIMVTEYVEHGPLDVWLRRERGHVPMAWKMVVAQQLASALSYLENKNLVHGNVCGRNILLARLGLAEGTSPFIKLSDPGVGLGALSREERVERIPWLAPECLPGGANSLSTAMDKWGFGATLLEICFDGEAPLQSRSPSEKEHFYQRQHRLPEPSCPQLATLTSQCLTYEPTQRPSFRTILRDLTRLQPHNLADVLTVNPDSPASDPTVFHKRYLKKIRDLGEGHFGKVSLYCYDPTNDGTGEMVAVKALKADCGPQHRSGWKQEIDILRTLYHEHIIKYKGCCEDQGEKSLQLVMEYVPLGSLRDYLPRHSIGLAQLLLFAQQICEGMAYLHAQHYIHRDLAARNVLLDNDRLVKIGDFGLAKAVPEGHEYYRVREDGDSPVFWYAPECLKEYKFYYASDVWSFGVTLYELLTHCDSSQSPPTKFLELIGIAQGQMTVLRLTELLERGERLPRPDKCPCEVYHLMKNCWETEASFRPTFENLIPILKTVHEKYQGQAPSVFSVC", "assay": "Biochemical Tyk2 kinase assay (LanthaScreen)", "settings": "for Ki: read-out: Tyk 2 (pKi) (converted)", "in_short": "as §1"}, "[1]": {"tested_on": "IL-2 stimulated pSTAT5 in Tall-1 T cells", "assay": "Cellular JAK3 potency assay: inhibition of IL-2 stimulated pSTAT5 in Tall-1 T cells", "assay_type": "cell-based, human", "settings": "for Tall-1 (pIC50): IL-2 stimulated pSTAT5, Tall-1 T cells; for IC50: Homo sapiens, TALL-1, IL-2 stimulated pSTAT5 in Tall-1 T cells, read-out: Tall-1 (pIC50) (converted)", "in_short": "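Inhibition of IL-2-induced pSTAT5 was quantified by AlphaLisa in Tall-1 cell lysates. Compound exposure lasted 1 h before 30 min stimulation with 300 ng/ml IL-2 final.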"}, "JAK3": {"target": "T4, JAK3 (Homo sapiens, UniProt P52333)", "T4 sequence (P52333 1-1124)": "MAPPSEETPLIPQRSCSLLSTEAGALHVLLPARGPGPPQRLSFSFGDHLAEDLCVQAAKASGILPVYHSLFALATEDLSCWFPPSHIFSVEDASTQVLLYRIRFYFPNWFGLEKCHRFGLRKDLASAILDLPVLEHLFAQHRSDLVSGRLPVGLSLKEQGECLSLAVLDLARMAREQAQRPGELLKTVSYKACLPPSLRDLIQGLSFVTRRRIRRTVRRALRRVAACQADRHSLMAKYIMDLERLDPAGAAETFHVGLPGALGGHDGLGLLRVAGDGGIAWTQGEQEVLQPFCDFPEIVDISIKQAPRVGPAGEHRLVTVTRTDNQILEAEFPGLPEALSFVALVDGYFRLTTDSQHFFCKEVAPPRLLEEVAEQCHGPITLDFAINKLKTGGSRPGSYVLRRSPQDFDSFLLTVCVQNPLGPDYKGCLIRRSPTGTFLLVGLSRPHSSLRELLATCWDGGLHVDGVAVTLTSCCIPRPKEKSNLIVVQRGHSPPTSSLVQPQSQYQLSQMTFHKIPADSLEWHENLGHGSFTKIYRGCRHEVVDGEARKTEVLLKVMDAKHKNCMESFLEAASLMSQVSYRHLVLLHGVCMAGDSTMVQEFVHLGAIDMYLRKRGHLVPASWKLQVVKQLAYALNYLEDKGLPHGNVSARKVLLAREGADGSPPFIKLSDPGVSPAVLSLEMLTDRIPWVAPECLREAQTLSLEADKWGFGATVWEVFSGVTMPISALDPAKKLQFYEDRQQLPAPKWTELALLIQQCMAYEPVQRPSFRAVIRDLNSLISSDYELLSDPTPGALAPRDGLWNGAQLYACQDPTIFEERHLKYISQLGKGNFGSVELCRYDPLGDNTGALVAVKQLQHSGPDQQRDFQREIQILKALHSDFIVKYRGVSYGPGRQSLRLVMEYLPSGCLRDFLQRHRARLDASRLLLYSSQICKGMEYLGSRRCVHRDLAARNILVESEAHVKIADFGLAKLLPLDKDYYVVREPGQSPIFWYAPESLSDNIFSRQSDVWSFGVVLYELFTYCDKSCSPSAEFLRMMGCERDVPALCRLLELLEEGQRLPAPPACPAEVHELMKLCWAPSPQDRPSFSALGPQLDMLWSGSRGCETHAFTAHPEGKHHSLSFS", "assay": "Biochemical JAK3 kinase assay (LanthaScreen)", "design": "GST; purchased Life Technologies", "settings": "for Ki: read-out: JAK 3 (pKi) (converted)", "in_short": "as §1"}, "[2]": {"settings": "selectivity JAK3 over JAK1, difference of pKi"}, "[3]": {"settings": "selectivity: difference of pKi JAK3 and pKi JAK1"}}}
{"smiles": "C=CC(=O)N1CCO[C@@H](C(=O)Nc2nc(-c3ccc(O)c(F)c3)cc3[nH]ncc23)C1", "note": "[Compound 13-21]", "values": [{"measurement": "JAK 1 (pKi)", "setting": "JAK1", "result": "E (a pKi value of 7 or below (Ki of 100 nM or above))"}, {"measurement": "JAK 2 (pKi)", "setting": "JAK2", "result": "D (a pKi value between 7 and 8 (Ki between 100 nM and 10 nM))"}, {"measurement": "Tyk 2 (pKi)", "setting": "Tyk2", "result": "E (a pKi value of 7 or below (Ki of 100 nM or above))"}, {"measurement": "Tall-1 (pIC50)", "setting": "[1]", "result": "A (a pIC50 value≥7.5 (IC50≤32 nM))"}, {"measurement": "JAK 3 (pKi)", "setting": "JAK3", "result": "B (a pKi value between 9 and 10 (Ki between 1 nM and 0.1 nM))"}, {"measurement": "JAK3 (pKi)-JAK1 (pKi)", "setting": "JAK3; [2]", "result": "B (a value of 2.3 to 3)"}]}
{"smiles": "C=CC(=O)N1CCO[C@@H](C(=O)Nc2cc(-c3ccc(O)c(Cl)c3)nc3[nH]ncc23)C1", "note": "[Compound 13-22]", "values": [{"measurement": "JAK 1 (pKi)", "setting": "JAK1", "result": "E (a pKi value of 7 or below (Ki of 100 nM or above))"}, {"measurement": "JAK 2 (pKi)", "setting": "JAK2", "result": "E (a pKi value of 7 or below (Ki of 100 nM or above))"}, {"measurement": "Tyk 2 (pKi)", "setting": "Tyk2", "result": "E (a pKi value of 7 or below (Ki of 100 nM or above))"}, {"measurement": "Tall-1 (pIC50)", "setting": "[1]", "result": "B (a pIC50 value between 6.7 (included) and 7.5 (IC50 between 200 nM and 32 nM))"}, {"measurement": "JAK 3 (pKi)", "setting": "JAK3", "result": "B (a pKi value between 9 and 10 (Ki between 1 nM and 0.1 nM))"}, {"measurement": "JAK3 (pKi)-JAK1 (pKi)", "setting": "JAK3; [2]", "result": "A (a value of 3 or above)"}]}
{"smiles": "C=CC(=O)N1CC[C@H](S(=O)(=O)c2cc(-c3ccc(O)cc3)cc3[nH]ncc23)C1", "note": "[Compound 13]", "values": [{"measurement": "Ki", "setting": "JAK1", "result": "> 100", "unit": "nM"}, {"measurement": "Ki", "setting": "JAK2", "result": "> 100", "unit": "nM"}, {"measurement": "Ki", "setting": "Tyk2", "result": "> 100", "unit": "nM"}, {"measurement": "IC50", "setting": "[1]", "result": "31.6 to 200", "unit": "nM"}, {"measurement": "Ki", "setting": "JAK3", "result": "< 0.1", "unit": "nM"}, {"measurement": "JAK3 (pKi)-JAK1 (pKi)", "setting": "JAK3; [3]", "result": "A (a value of 3 or above)"}]}
{"smiles": "C=CC(=O)N1CCC(Cc2cc(-c3ccc(O)cc3)cc3[nH]ncc23)CC1", "note": "[Compound 14, 1-(4-((6-(4-hydroxyphenyl)-1H-indazol-4-yl)methyl)piperidin-1-yl)prop-2-en-1-one]", "values": [{"measurement": "Ki", "setting": "JAK1", "result": "> 100", "unit": "nM"}, {"measurement": "Ki", "setting": "JAK2", "result": "> 100", "unit": "nM"}, {"measurement": "Ki", "setting": "Tyk2", "result": "> 100", "unit": "nM"}, {"measurement": "IC50", "setting": "[1]", "result": "31.6 to 200", "unit": "nM"}, {"measurement": "Ki", "setting": "JAK3", "result": "0.1 to 1", "unit": "nM"}, {"measurement": "JAK3 (pKi)-JAK1 (pKi)", "setting": "JAK3; [3]", "result": "A (a value of 3 or above)"}]}
{"smiles": "C=CC(=O)N1CCC(COc2cc(-c3ccc(O)c(Cl)c3)cc3[nH]ncc23)CC1", "note": "[Compound 14-1]", "values": [{"measurement": "JAK 1 (pKi)", "setting": "JAK1", "result": "E (a pKi value of 7 or below (Ki of 100 nM or above))"}, {"measurement": "JAK 2 (pKi)", "setting": "JAK2", "result": "E (a pKi value of 7 or below (Ki of 100 nM or above))"}, {"measurement": "Tyk 2 (pKi)", "setting": "Tyk2", "result": "E (a pKi value of 7 or below (Ki of 100 nM or above))"}, {"measurement": "Tall-1 (pIC50)", "setting": "[1]", "result": "A (a pIC50 value≥7.5 (IC50≤32 nM))"}, {"measurement": "JAK 3 (pKi)", "setting": "JAK3", "result": "B (a pKi value between 9 and 10 (Ki between 1 nM and 0.1 nM))"}, {"measurement": "JAK3 (pKi)-JAK1 (pKi)", "setting": "JAK3; [2]", "result": "A (a value of 3 or above)"}]}
{"smiles": "C=CC(=O)N1CCC(COc2cc(-c3ccc(O)cc3)nc3[nH]ncc23)CC1", "note": "[Compound 14-2]", "values": [{"measurement": "JAK 1 (pKi)", "setting": "JAK1", "result": "E (a pKi value of 7 or below (Ki of 100 nM or above))"}, {"measurement": "JAK 2 (pKi)", "setting": "JAK2", "result": "E (a pKi value of 7 or below (Ki of 100 nM or above))"}, {"measurement": "Tyk 2 (pKi)", "setting": "Tyk2", "result": "E (a pKi value of 7 or below (Ki of 100 nM or above))"}, {"measurement": "Tall-1 (pIC50)", "setting": "[1]", "result": "B (a pIC50 value between 6.7 (included) and 7.5 (IC50 between 200 nM and 32 nM))"}, {"measurement": "JAK 3 (pKi)", "setting": "JAK3", "result": "A (a pKi value≥10 (Ki≤0.1 nM))"}, {"measurement": "JAK3 (pKi)-JAK1 (pKi)", "setting": "JAK3; [2]", "result": "A (a value of 3 or above)"}]}
{"smiles": "C=CC(=O)N1CCC(COc2cc(-c3ccc(O)c(F)c3)nc3[nH]ncc23)CC1", "note": "[Compound 14-9]", "values": [{"measurement": "JAK 1 (pKi)", "setting": "JAK1", "result": "E (a pKi value of 7 or below (Ki of 100 nM or above))"}, {"measurement": "JAK 2 (pKi)", "setting": "JAK2", "result": "E (a pKi value of 7 or below (Ki of 100 nM or above))"}, {"measurement": "Tyk 2 (pKi)", "setting": "Tyk2", "result": "E (a pKi value of 7 or below (Ki of 100 nM or above))"}, {"measurement": "Tall-1 (pIC50)", "setting": "[1]", "result": "B (a pIC50 value between 6.7 (included) and 7.5 (IC50 between 200 nM and 32 nM))"}, {"measurement": "JAK 3 (pKi)", "setting": "JAK3", "result": "B (a pKi value between 9 and 10 (Ki between 1 nM and 0.1 nM))"}, {"measurement": "JAK3 (pKi)-JAK1 (pKi)", "setting": "JAK3; [2]", "result": "A (a value of 3 or above)"}]}
